Experimental findings from ChEMBL document CHEMBL5465560, “Selectivity Literature for EUbOPEN Chemogenomic Library” (2024) are described below.

For assay [1], the target named is MAP kinase-activated protein kinase 2 (Homo sapiens, UniProt P49137). The assay can be described thus: Selectivity interaction (ProQinase) EUB0000171b MAPKAPK2.
The target in assay [2] is T1, Activin receptor type-1 (Homo sapiens) (UniProt Q04771).
T1 sequence (whole entry): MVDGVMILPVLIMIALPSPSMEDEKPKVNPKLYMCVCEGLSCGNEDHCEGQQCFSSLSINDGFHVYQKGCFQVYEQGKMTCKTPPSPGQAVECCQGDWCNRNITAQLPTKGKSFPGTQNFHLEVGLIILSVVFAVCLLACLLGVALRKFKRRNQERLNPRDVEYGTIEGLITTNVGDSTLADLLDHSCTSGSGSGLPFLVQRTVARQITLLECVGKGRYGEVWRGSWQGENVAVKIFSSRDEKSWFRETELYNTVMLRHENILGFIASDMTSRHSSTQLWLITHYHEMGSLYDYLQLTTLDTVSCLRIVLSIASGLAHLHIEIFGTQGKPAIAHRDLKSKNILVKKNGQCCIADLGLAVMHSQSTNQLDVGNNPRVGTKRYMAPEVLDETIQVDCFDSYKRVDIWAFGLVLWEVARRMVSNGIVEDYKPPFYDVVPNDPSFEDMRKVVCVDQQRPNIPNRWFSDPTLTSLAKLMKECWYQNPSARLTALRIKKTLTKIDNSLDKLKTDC
To be noted: at 10 µM.

For assay [3], the target named is Tyrosine-protein kinase SYK (Homo sapiens, UniProt P43405). To be noted: at 10 µM.
Assay [4] concerns the target Kappa-type opioid receptor (Homo sapiens, UniProt P41145). The assay can be described thus: Selectivity interaction (Panel of kinases, GPCRs, ion channels and transporters (enzymatic assay)) EUB0000223bCl OPRK1.
The target of assay [5] is Protein arginine N-methyltransferase 1 (Homo sapiens, UniProt Q99873). Description: Selectivity interaction (Methyltransferase screen (radiometric assays, panel of 8 PRMTs, 21 protein lysine methyltransferases, 3 DNA methyltransferases, and one RNA methyltransferase)) EUB0000271b PRMT1.
Assay [6] concerns the target G protein-coupled receptor kinase 4 (Homo sapiens) (UniProt P32298). Description: Selectivity interaction (Kinase panel (Z-LYTE Assay)) EUB0001632a GRK4. To be noted: at 10 µM.
The target in assay [7] is T2, Non-receptor tyrosine-protein kinase TNK1 (Homo sapiens) (UniProt Q13470).
T2 sequence (whole entry): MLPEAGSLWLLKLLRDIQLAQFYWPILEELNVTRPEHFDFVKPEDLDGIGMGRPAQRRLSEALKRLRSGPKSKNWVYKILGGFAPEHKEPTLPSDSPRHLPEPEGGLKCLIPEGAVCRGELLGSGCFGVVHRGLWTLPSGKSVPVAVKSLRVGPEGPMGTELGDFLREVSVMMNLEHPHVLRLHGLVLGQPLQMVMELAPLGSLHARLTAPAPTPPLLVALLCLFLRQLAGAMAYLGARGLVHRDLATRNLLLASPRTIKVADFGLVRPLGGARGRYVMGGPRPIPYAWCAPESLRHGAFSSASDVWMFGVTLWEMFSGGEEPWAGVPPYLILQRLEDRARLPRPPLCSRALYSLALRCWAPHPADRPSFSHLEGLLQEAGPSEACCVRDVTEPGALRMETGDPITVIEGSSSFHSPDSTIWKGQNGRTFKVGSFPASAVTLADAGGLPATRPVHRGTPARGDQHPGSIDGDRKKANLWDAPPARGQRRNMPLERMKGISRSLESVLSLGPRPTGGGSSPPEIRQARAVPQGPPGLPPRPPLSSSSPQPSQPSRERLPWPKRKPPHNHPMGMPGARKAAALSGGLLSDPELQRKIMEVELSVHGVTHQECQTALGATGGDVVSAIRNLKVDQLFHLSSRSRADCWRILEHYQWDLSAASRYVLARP
Description: Selectivity interaction (Kinase panel (Z-LYTE Assay)) EUB0001632a TNK1. To be noted: at 10 µM.

Assay [8] deals with T3, Inhibitor of nuclear factor kappa-B kinase subunit beta (Homo sapiens) (UniProt O14920).
T3 sequence (whole entry): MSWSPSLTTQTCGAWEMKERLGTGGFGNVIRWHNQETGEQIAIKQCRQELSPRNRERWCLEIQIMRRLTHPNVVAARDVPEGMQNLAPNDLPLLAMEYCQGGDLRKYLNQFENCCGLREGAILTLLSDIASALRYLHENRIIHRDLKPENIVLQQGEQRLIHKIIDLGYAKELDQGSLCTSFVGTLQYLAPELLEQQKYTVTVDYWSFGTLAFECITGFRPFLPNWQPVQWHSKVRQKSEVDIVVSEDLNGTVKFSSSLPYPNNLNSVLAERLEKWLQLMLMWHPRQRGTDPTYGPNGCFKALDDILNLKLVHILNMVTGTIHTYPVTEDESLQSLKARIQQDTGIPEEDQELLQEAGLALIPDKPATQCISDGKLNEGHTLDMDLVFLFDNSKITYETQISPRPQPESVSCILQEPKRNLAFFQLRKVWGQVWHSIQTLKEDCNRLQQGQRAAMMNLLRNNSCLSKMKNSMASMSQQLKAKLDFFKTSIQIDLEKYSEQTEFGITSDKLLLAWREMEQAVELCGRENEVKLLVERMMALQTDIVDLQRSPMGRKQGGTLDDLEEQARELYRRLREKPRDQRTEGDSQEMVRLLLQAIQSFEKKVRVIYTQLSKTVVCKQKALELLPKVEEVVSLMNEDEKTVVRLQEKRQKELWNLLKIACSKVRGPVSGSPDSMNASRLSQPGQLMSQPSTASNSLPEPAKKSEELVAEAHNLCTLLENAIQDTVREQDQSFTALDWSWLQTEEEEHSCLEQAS
Description: Selectivity interaction (KinomeScan (DiscoverX)) EUB0001619a IKBKB. To be noted: at 1 µM.

Sequence of MAP kinase-activated protein kinase 2 (P49137 whole entry, looked up): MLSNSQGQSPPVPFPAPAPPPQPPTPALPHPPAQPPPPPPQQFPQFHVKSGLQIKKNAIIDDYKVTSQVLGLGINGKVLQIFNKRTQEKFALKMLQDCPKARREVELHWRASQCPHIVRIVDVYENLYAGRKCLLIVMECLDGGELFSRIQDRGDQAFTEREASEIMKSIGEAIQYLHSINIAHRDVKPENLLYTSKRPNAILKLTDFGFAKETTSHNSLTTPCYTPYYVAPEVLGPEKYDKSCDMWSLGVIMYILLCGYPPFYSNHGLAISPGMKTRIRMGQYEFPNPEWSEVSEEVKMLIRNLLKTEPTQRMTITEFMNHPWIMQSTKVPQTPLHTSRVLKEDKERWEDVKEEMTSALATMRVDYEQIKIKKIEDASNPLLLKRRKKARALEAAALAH
Sequence of Protein arginine N-methyltransferase 1 (Q99873 whole entry, looked up): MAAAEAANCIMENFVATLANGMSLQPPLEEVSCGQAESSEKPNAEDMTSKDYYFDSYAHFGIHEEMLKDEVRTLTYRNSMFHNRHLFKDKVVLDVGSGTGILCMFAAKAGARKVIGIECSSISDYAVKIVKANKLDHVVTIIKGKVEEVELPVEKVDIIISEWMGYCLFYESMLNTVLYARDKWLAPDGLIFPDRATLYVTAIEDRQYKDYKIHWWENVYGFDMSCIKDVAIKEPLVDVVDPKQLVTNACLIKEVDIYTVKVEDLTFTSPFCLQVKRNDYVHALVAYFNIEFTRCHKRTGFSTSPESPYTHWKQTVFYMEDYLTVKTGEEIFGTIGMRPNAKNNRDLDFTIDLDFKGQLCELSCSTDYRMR
Sequence of Kappa-type opioid receptor (P41145 whole entry): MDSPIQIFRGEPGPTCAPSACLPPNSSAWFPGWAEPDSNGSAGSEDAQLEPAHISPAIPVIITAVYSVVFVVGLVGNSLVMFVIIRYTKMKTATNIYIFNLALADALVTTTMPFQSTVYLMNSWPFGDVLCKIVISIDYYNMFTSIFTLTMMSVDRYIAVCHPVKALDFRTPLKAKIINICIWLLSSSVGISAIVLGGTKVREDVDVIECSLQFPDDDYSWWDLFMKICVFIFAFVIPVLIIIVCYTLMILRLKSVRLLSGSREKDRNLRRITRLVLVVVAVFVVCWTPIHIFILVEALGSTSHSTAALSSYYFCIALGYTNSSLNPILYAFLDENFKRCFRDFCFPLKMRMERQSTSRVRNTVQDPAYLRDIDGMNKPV
Sequence of G protein-coupled receptor kinase 4 (Homo sapiens) (P32298 whole entry, looked up): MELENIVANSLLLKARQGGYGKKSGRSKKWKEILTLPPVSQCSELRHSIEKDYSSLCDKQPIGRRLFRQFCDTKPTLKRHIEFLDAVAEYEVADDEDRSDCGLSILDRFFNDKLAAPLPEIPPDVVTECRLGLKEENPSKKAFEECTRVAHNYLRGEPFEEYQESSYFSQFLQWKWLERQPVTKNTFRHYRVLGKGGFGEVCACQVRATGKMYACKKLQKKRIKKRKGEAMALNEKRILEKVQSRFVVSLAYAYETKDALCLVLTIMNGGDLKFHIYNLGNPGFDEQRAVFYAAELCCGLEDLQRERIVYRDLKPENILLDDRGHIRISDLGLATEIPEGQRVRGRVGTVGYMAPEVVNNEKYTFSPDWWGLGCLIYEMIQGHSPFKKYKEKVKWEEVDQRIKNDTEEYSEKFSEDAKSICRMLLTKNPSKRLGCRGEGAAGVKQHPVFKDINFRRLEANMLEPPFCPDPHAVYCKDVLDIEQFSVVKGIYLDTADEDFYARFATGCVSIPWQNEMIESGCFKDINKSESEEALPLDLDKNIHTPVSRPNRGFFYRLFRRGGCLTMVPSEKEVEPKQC

For `C=CC(=O)Nc1cccc(C(=O)Nc2ccc(Nc3cc(-c4[nH]c(SC)nc4C)ccn3)cc2)c1`, the % of control came out at 71% in assay [1] (at 1 µM) and 42% in assay [1] (at 5 µM).

In the case of `Cc1cc([C@@H](C)Nc2ccccc2C(=O)O)c2nc(N3CCOCC3)cc(=O)n2c1` [AZD-6482], the % of control in assay [2] was 98%.

On to `CCN(CC)CCCCNc1ncc2cc(-c3cc(OC)cc(OC)c3)c(NC(=O)NC(C)(C)C)nc2n1`, for which, in assay [3], the % of control came out at 100%.

Compound `COc1cc(C(=O)N2CC[C@@H](O)[C@@H](N)C2)cc2nc(-c3cc4ccccc4n3CC3CC3)n(C)c12` gave a pXC50 in assay [4] of under 4 M.

Turning to `Cc1cc(C)cc([C@@H]2c3cc(C)ccc3NC(=O)CN2C(=O)c2ccc(Br)s2)c1`, the values for the % of activity in assay [5] (at 1 µM) and in assay [5] (at 10 µM) were 98.3% and 94.3%, respectively.

On to `Cn1cc(-n2cnc3c(NCc4nc5cc(Cl)c(Cl)cc5[nH]4)nc(N4CCOCC4)nc32)cn1`, for which the % of control was 0.672% in assay [6] and 4.62% in assay [7].

In assay [8], `N#Cc1cccc(-c2c[nH]c3ncnc(N4CCOCC4)c23)c1` returned a % of control of 90%.
